This passage reports melting point and IC50 results from patent US8906909B2 (Curis, Inc., priority 2009, dated 2014).

The subject of data set [1] is HDACs (HeLa cell nuclear extracts). Nature of the data set: HDAC enzymatic activity, Biomol Color de Lys system. The data set is classed as biochemical. In short, it runs like this: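 HeLa nuclear extract as HDAC source with Color de Lys substrate in 50 mM Tris/Cl pH 8.0, 137 mM NaCl, 2.7 mM KCl, 1 mM MgCl2. Serially diluted compounds reacted 1 h at 25 °C, then developer added; fluorescence (Ex 350–380/Em 440–460) fitted sigmoidally for IC50.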

By melting point is commonly meant the temperature, or range, at which the solid turns liquid. Broadly, the IC50 is the concentration at which inhibition is half-maximal. Low readings indicate higher potency, high ones lower potency.

Bounds are passed on as bounds.

Compound `CN(Cc1cc2nc(-c3cc(F)c(N)c(F)c3)nc(N3CCOCC3)c2s1)c1ncc(C(=O)NO)cn1` [Compound 282, 2-(((2-(4-Amino-3,5-difluorophenyl)-4-morpholinothieno[3,2-d]pyrimidin-6-yl)methyl)(methyl)amino)-N-hydroxypyrimidine-5-carboxamide] displayed a melting point of 190 to 193 °C. The half-maximal inhibitory concentration (IC50) in data set [1] is below 100 nM.
Taken in the same sequence, the figures for `O=C(CCCCCNCc1cc2nc(-c3cccc4[nH]ncc34)nc(N3CCOCC3)c2s1)NO` [Compound 43, 6-((2-(1H-indazol-4-yl)-4-morpholinothieno[3,2-d]pyrimidin-6-yl)methylamino)-N-hydroxyhexanamide] were 128 to 130 °C and below 100 nM.
On to `CN(Cc1cc2nc(-c3ccc4[nH]cnc4c3)nc(N3CCOCC3)c2s1)c1ncc(C(=O)NO)cn1` [Compound 187, 2-(((2-(1H-benzo[d]imidazol-5-yl)-4-morpholinothieno[3,2-d]pyrimidin-6-yl)methyl)(methyl)amino)-N-hydroxypyrimidine-5-carboxamide], for which the melting point fell in the range of 231 to 239 °C. Also, the IC50 in data set [1] was below 100 nM.
Taken in the same sequence, the figures for `CN(Cc1cc2nc(-c3cnn(C)c3)nc(N3CCOCC3)c2s1)c1ncc(C(=O)NO)cn1` [Compound 246, N-Hydroxy-2-(methyl((2-(1-methyl-1H-pyrazol-4-yl)-4-morpholinothieno[3,2-d]pyrimidin-6-yl)methyl)amino)pyrimidine-5-carboxamide] were 164 to 169 °C and below 100 nM.
Taken in the same sequence, the figures for `COc1ccc(-c2nc(N3CCOCC3)c3sc(NS(=O)(=O)c4ccc(/C=C/C(=O)NO)cc4)cc3n2)cn1` [Compound 222, N-Hydroxy-3-{4-[2-(6-methoxy-pyridin-3-yl)-4-morpholin-4-yl-thieno[3,2-d]pyrimidin-6-ylsulfamoyl]-phenyl}-acrylamide] were above 300 °C and below 100 nM.
Consider `CN(Cc1cc2nc(-c3ccccc3)nc(N3CCOCC3)c2s1)c1ncc(C(=O)NO)cn1` [Compound 129, N-hydroxy-2-(methyl((4-morpholino-2-phenylthieno[3,2-d]pyrimidin-6-yl)methyl)amino)pyrimidine-5-carboxamide], for which the melting point lay within 199 to 200 °C. The compound also yielded an IC50 in data set [1] below 100 nM.
For `CN(Cc1cc2nc(-c3ccc(N)c(CO)c3)nc(N3CCOCC3)c2s1)c1ncc(C(=O)NO)cn1` [Compound 285, 2-(((2-(4-Amino-3-(hydroxymethyl)phenyl)-4-morpholinothieno[3,2-d]pyrimidin-6-yl)methyl)(methyl)amino)-N-hydroxypyrimidine-5-carboxamide], the melting point fell in the range of 195 to 200 °C. The IC50 in data set [1] was below 100 nM.
`Nc1ccc(-c2nc(N3CCOCC3)c3sc(CNc4ncc(C(=O)NO)cn4)cc3n2)cc1` [Compound 211, 2-((2-(4-aminophenyl)-4-morpholinothieno[3,2-d]pyrimidin-6-yl)methylamino)-N-hydroxypyrimidine-5-carboxamide] registered a melting point of 217 to 223 °C. For the same compound, in data set [1], the IC50 is below 100 nM.
The like results for `CN(CCCCC(=O)NO)Cc1cc2nc(-c3cccc4[nH]ncc34)nc(N3CCOCC3)c2s1` [Compound 102, 5-(((2-(1H-indazol-4-yl)-4-morpholinothieno[3,2-d]pyrimidin-6-yl)methyl)(methyl)amino)-N-hydroxypentanamide] were, in that order, 120 to 122 °C and 100 to 1000 nM.
The compound `CCCCN(Cc1cc2nc(-c3cccc4[nH]ncc34)nc(N3CCOCC3)c2s1)c1ncc(C(=O)NO)cn1` [Compound 85, 2-(((2-(1H-indazol-4-yl)-4-morpholinothieno[3,2-d]pyrimidin-6-yl)methyl)(butyl)amino)-N-hydroxypyrimidine-5-carboxamide] registered a melting point of 234 to 236 °C. Further, the IC50 in data set [1] was below 100 nM.
On to `CS(=O)(=O)N1CCN(Cc2cc3nc(-c4ccc(OCCCCCC(=O)NO)cc4)nc(N4CCOCC4)c3s2)CC1` [Compound 320, N-Hydroxy-6-(4-(6-((4-(methylsulfonyl)piperazin-1-yl)methyl)-4-morpholinothieno[3,2-d]pyrimidin-2-yl)phenoxy)hexanamide], for which the melting point fell in the range of 140 to 142 °C. For the same compound, in data set [1], the IC50 fell in the range of 100 to 1000 nM.
With `CS(=O)(=O)N1CCN(Cc2cc3nc(-c4cccc5[nH]ncc45)nc(N4CCN(CCCCCC(=O)NO)CC4)c3s2)CC1` [Compound 31, 6-(4-(2-(1H-indazol-4-yl)-6-((4-(methylsulfonyl)piperazin-1-yl)methyl)thieno[3,2-d]pyrimidin-4-yl)piperazin-1-yl)-N-hydroxyhexanamide], the melting point fell in the range of 140 to 145 °C. This compound also displayed an IC50 in data set [1] of 100 to 1000 nM.
`CN(Cc1cc2nc(-c3cccc(N)c3)nc(N3CCOCC3)c2s1)c1ncc(C(=O)NO)cn1` [Compound 134, 2-(((2-(3-aminophenyl)-4-morpholinothieno[3,2-d]pyrimidin-6-yl)methyl)(methyl)amino)-N-hydroxypyrimidine-5-carboxamide] returned a melting point of 179 to 182 °C. The compound also came in with an IC50 in data set [1] below 100 nM.
In turn, `CC(=O)c1cc(-c2nc(N3CCOCC3)c3sc(CN(C)c4ncc(C(=O)NO)cn4)cc3n2)ccc1N` [Compound 281, 2-{[2-(3-Acetyl-4-amino-phenyl)-4-morpholin-4-yl-thieno[3,2-d]pyrimidin-6-ylmethyl]-methyl-amino}-pyrimidine-5-carboxylic acid hydroxyamide] yielded a melting point of 156 to 158 °C. The compound also had an IC50 in data set [1] below 100 nM.
`Cc1ncc(-c2nc(N3CCOCC3)c3sc(NCCCCC(=O)NO)cc3n2)cn1` [Compound 229, N-Hydroxy-5-(2-(2-methylpyrimidin-5-yl)-4-morpholinothieno[3,2-d]pyrimidin-6-ylamino)pentanamide] registered a melting point of 248 to 252 °C. In data set [1], this compound had a concentration for half-maximal inhibition (IC50) below 100 nM.
The compound `CN(Cc1cc2nc(-c3ccc4c(c3)NCCO4)nc(N3CCOCC3)c2s1)c1ncc(C(=O)NO)cn1` [Compound 182, 2-(((2-(3,4-dihydro-2H-benzo[b][1,4]oxazin-6-yl)-4-morpholinothieno[3,2-d]pyrimidin-6-yl)methyl)(methyl)amino)-N-hydroxypyrimidine-5-carboxamide] gave a melting point of 170 to 183 °C. The IC50 in data set [1] was below 100 nM.
The like results for `O=C(CCCCNCc1cc2nc(-c3cccc4[nH]ncc34)nc(N3CCOCC3)c2s1)NO` [Compound 42, 5-((2-(1H-indazol-4-yl)-4-morpholinothieno[3,2-d]pyrimidin-6-yl)methylamino)-N-hydroxypentanamide] were, in that order, 145 to 147 °C and below 100 nM.
`COc1ncc(-c2nc(N3CCOCC3)c3sc(C(C)N(C)c4ncc(C(=O)NO)cn4)cc3n2)cn1` (centres unmarked) [Compound 262, N-Hydroxy-2-((1-(2-(2-methoxypyrimidin-5-yl)-4-morpholinothieno[3,2-d]pyrimidin-6-yl)ethyl)(methyl)amino)pyrimidine-5-carboxamide] came in with a melting point of 210 to 215 °C. Further, the IC50 in data set [1] was below 100 nM.
The like results for `O=C(/C=C/c1ccc(NCc2cc3nc(-c4cccc5[nH]ncc45)nc(N4CCOCC4)c3s2)cc1)NO` [Compound 80, (E)-3-(4-((2-(1H-indazol-4-yl)-4-morpholinothieno[3,2-d]pyrimidin-6-yl)methylamino)phenyl)-N-hydroxyacrylamide] were, in that order, above 300 °C and 100 to 1000 nM.
Turning to `CNc1ccc(-c2nc(N3CCOCC3)c3sc(CN(C)c4ncc(C(=O)NO)cn4)cc3n2)cc1` [Compound 151, N-hydroxy-2-(methyl((2-(4-(methylamino)phenyl)-4-morpholinothieno[3,2-d]pyrimidin-6-yl)methyl)amino)pyrimidine-5-carboxamide], the melting point was 218 to 220 °C. Besides, the IC50 in data set [1] was below 100 nM.
The like results for `CNCCOc1ccc(-c2nc(N3CCOCC3)c3sc(CN(C)c4ncc(C(=O)NO)cn4)cc3n2)cn1` [Compound 258, N-Hydroxy-2-(methyl((2-(6-(2-(methylamino)ethoxy)pyridin-3-yl)-4-morpholinothieno[3,2-d]pyrimidin-6-yl)methyl)amino)pyrimidine-5-carboxamide] were, in that order, 170 to 175 °C and below 100 nM.
Taken in the same sequence, the figures for `Cc1nc2ccc(-c3nc(N4CCOCC4)c4sc(CN(C)c5ncc(C(=O)NO)cn5)cc4n3)cc2[nH]1` [Compound 199, N-hydroxy-2-(methyl((2-(2-methyl-3H-benzo[d]imidazol-5-yl)-4-morpholinothieno[3,2-d]pyrimidin-6-yl)methyl)amino)pyrimidine-5-carboxamide] were 230 to 233 °C and below 100 nM.
The like results for `CS(=O)(=O)N1CCN(Cc2cc3nc(-c4cccc5c4cnn5CCCCCCC(=O)NO)nc(N4CCOCC4)c3s2)CC1` [Compound 5, N-hydroxy-7-(4-(6-((4-(methylsulfonyl)piperazin-1-yl)methyl)-4-morpholinothieno[3,2-d]pyrimidin-2-yl)-1H-indazol-1-yl)heptanamide] were, in that order, 127 to 130 °C and below 100 nM.
On to `CN(C)c1ccc(-c2nc(N3CCOCC3)c3sc(CN(C)c4ncc(C(=O)NO)cn4)cc3n2)cn1` [Compound 114, 2-(((2-(6-(dimethylamino)pyridin-3-yl)-4-morpholinothieno[3,2-d]pyrimidin-6-yl)methyl)(methyl)amino)-N-hydroxypyrimidine-5-carboxamide], for which the melting point lay in the range of 190 to 195 °C. In addition, the half-inhibitory concentration (IC50) in data set [1] is below 100 nM.
As to `CN(Cc1cc2nc(-c3ccc(CN)cc3)nc(N3CCOCC3)c2s1)c1ncc(C(=O)NO)cn1` [Compound 135, 2-(((2-(4-(aminomethyl)phenyl)-4-morpholinothieno[3,2-d]pyrimidin-6-yl)methyl)(methyl)amino)-N-hydroxypyrimidine-5-carboxamide], the melting point lay in the range of 184 to 186 °C. This compound had an IC50 in data set [1] below 100 nM.
